Data as given in patent US20250163038A1, “CBL-B MODULATORS AND USES THEREOF” (Nimbus Clio, Inc., priority 2021, published 2025).
Where two headings read alike, the source gives them in different places.

What was measured:
[1] = test system: Jurkat (clone E6-1) cells with NFAT luciferase reporter; test: Jurkat reporter assay (NFAT Luciferase); format: cell-based; settings: Jurkat NFAT luciferase reporter cells, anti-CD3 stimulation, 6 hr, read-out: Jurkat NFAT EC50
[2] = target: Recombinant human Cbl-b (aa 36-427) (Homo sapiens, UniProt Q13191); test: Cbl-b Biochemical Assay (TR-FRET); settings: read-out: TR-FRET hCbl-b IC50
Recombinant human Cbl-b (aa 36-427), sequence (Q13191 36-427): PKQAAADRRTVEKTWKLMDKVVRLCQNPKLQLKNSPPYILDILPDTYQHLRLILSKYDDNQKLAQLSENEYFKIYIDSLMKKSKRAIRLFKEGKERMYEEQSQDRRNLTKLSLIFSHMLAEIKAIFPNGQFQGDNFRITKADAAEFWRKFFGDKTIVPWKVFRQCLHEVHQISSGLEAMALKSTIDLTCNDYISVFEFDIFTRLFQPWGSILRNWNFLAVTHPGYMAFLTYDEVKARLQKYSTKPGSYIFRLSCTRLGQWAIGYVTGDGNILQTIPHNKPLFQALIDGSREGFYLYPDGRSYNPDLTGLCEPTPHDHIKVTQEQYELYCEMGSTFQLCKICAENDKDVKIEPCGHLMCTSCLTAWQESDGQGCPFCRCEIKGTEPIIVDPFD

[3] = target: T1, Recombinant human c-Cbl (aa 47-435) (Homo sapiens, UniProt P22681); test: c-Cbl Biochemical Assay (TR-FRET); settings: hc-Cbl Biochemical Assay (TR-FRET); read-out: TR-FRET hcCbl IC50
T1 sequence (P22681 47-435): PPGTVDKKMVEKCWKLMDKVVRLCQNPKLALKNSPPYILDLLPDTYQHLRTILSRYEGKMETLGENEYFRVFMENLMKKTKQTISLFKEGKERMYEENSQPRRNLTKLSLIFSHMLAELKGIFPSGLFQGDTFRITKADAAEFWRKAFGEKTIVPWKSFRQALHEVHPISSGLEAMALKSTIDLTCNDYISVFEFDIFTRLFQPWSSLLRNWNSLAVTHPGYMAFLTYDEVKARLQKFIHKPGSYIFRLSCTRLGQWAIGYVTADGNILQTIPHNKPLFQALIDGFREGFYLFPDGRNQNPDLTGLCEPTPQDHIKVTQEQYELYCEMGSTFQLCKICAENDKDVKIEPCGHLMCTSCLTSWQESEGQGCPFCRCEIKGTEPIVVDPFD

Structure (SMILES)	EC50 ([1]; Homo sapiens) [nM]	IC50 [2] [nM]	IC50 [3] [nM]	EC50 [1] [nM]
Cn1cnnc1-c1cc(F)ccc1-c1cccc(-c2nc3cc(CN[C@H]4CC[C@@H]4O)cc(C(F)(F)F)c3o2)c1 (racemic) [ADF-2, (1R,2R)-2-[({2-[4′-Fluoro-2′-(4-methyl-1,2,4-triazol-3-yl)-[1,1′-biphenyl]-3-yl]-7-(trifluoromethyl)-1,3-benzoxazol-5-yl}methyl)amino]cyclobutan-1-ol]	< 200	< 200	< 200	–
C[C@H]1CCC[C@@H](NCc2cc(C(F)(F)F)c3oc(-c4cccc(-c5ccc(F)cc5-c5nncn5C)c4)nc3c2)C1 (racemic) [FV-2, rac-(1R,3S)—N-((2-(4′-fluoro-2′-(4-methyl-4H-1,2,4-triazol-3-yl)-[1,1′-biphenyl]-3-yl)-7-(trifluoromethyl)benzo[d]oxazol-5-yl)methyl)-3-methylcyclohexan-1-amine]	< 200	< 200	< 200	–
C[C@@H]1CCC[C@@H](NCc2cc(C(F)(F)F)c3oc(-c4cccc(-c5ccc(F)cc5-c5nncn5C)c4)nc3c2)C1 (racemic) [FV-3, rac-(1R,3R)—N-((2-(4′-fluoro-2′-(4-methyl-4H-1,2,4-triazol-3-yl)-[1,1′-biphenyl]-3-yl)-7-(trifluoromethyl)benzo[d]oxazol-5-yl)methyl)-3-methylcyclohexan-1-amine]	200 to 1000	< 200	< 200	–
Cn1cnnc1-c1cc(F)ccc1-c1cccc(-c2nc3cc(C(NCC4CCC4)C(F)(F)F)cc(F)c3o2)c1 (racemic) [IL-6, rac-N-(Cyclobutylmethyl)-2,2,2-trifluoro-1-(7-fluoro-2-(4′-fluoro-2′-(4-methyl-4H-1,2,4-triazol-3-yl)-[1,1′-biphenyl]-3-yl)benzo[d]oxazol-5-yl)ethan-1-amine]	200 to 1000	1000 to 10000	1000 to 10000	–
Cn1cnnc1-c1cc(F)ccc1-c1cccc(-c2nc3cc(CN[C@]4(C)CCC[C@@H]4O)cc(C(F)(F)F)c3o2)c1 (racemic) [IM-8, rac-(1S,2R)-2-(((2-(4′-fluoro-2′-(4-methyl-4H-1,2,4-triazol-3-yl)-[1,1′-biphenyl]-3-yl)-7-(trifluoromethyl)benzo[d]oxazol-5-yl)methyl)amino)-2-methylcyclopentan-1-ol]	< 200	< 200	< 200	–
Cn1cnnc1-c1cc(F)ccc1-c1cccc(-c2nc3cc(C(NCC4CCC4)C(F)(F)F)cc(C4CC4)c3o2)c1 (racemic) [IO-4, rac-N-(Cyclobutylmethyl)-1-(7-cyclopropyl-2-(4′-fluoro-2′-(4-methyl-4H-1,2,4-triazol-3-yl)-[1,1′-biphenyl]-3-yl)benzo[d]oxazol-5-yl)-2,2,2-trifluoroethan-1-amine]	1000 to 10000	1000 to 10000	1000 to 10000	–
Cn1cnnc1-c1cc(F)ccc1-c1cccc(-c2nc3cc(CN[C@H]4CC[C@@H]4O)cc(C(F)(F)F)c3o2)c1 (single isomer, unassigned) [ADG-1]	< 200	< 200	< 200	–
Cn1cnnc1-c1cc(F)ccc1-c1cccc(-c2nc3cc(CN[C@H]4CC[C@@H]4O)cc(C(F)(F)F)c3o2)c1 (single isomer, unassigned) [ADH-1]	–	< 200	< 200	< 200
Cn1cnnc1-c1cc(F)ccc1-c1cccc(-c2nc3cc([C@H](CO)N4CCC4)cc(C(F)(F)F)c3o2)c1 (single isomer, unassigned) [DO-6]	1000 to 10000	< 200	200 to 1000	–
Cn1cnnc1-c1cc(F)ccc1-c1cccc(-c2nc3cc([C@@H](CO)N4CCC4)cc(C(F)(F)F)c3o2)c1 (single isomer, unassigned) [DO-7]	1000 to 10000	< 200	200 to 1000	–
Cn1cnnc1-c1cc(F)ccc1-c1cccc(-c2nc3cc(CNC[C@H](O)C4CC4)cc(C(F)(F)F)c3o2)c1 (single isomer, unassigned) [DT-2]	< 200	< 200	< 200	–
Cn1cnnc1-c1cc(F)ccc1-c1cccc(-c2nc3cc(CNC[C@@H](O)C4CC4)cc(C(F)(F)F)c3o2)c1 (single isomer, unassigned) [DT-3]	< 200	< 200	< 200	–
COC(=O)c1cc(C)c2oc(-c3cc(-c4ccc(F)cc4-c4nncn4C)cc(C4CC4)n3)nc2c1 [AES-3, Methyl 2-{6-cyclopropyl-4-[4-fluoro-2-(4-methyl-1,2,4-triazol-3-yl)phenyl]pyridin-2-yl}-7-methyl-1,3-benzoxazole-5-carboxylate]	10000 to 50000	1000 to 10000	–	–
Cn1cnnc1-c1cc(F)ccc1-c1cccc(-c2nc3cc(C(=O)O)cc(C(F)(F)F)c3o2)c1 [DB-1, 2-(4′-Fluoro-2′-(4-methyl-4H-1,2,4-triazol-3-yl)-[1,1′-biphenyl]-3-yl)-7-(trifluoromethyl)benzo[d]oxazole-5-carboxylic Acid]	1000 to 10000	10000 to 50000	–	–
C[C@@H]1CN(Cc2cc(C(F)(F)F)c3oc(-c4cccc(-c5ccccc5-c5nncn5C)c4)nc3c2)CCO1 [Example 0-4, (R)-2-(2′-(4-Methyl-4H-1,2,4-triazol-3-yl)-[1,1′-biphenyl]-3-yl)-5-((2-methylmorpholino)methyl)-7-(trifluoromethyl)benzo[d]oxazole]	–	200 to 1000	10000 to 50000	–
Cn1cnnc1-c1ccccc1-c1cccc(-c2nc3cc(CO)cc(C(F)(F)F)c3o2)c1 [Example F-5, (2-(2′-(4-Methyl-4H-1,2,4-triazol-3-yl)-[1,1′-biphenyl]-3-yl)-7-(trifluoromethyl)benzo[d]oxazol-5-yl)methanol]	–	1000 to 10000	10000 to 50000	–
COC(=O)c1cc(C(F)(F)F)c2oc(-c3cccc(-c4ccccc4-c4nncn4C)c3)nc2c1 [Example G-1, Methyl 2-(2′-(4-methyl-4H-1,2,4-triazol-3-yl)-[1,1′-biphenyl]-3-yl)-7-(trifluoromethyl)benzo[d]oxazole-5-carboxylate]	–	10000 to 50000	10000 to 50000	–
Cn1cnnc1-c1ccccc1-c1cccc(-c2nc3cc(C(=O)O)cc(C(F)(F)F)c3o2)c1 [Example H-1, 2-(2′-(4-Methyl-4H-1,2,4-triazol-3-yl)-[1,1′-biphenyl]-3-yl)-7-(trifluoromethyl)benzo[d]oxazole-5-carboxylic Acid]	–	10000 to 50000	10000 to 50000	–
C[C@H]1CCCN(C(=O)c2cc(C(F)(F)F)c3oc(-c4cccc(-c5ccccc5-c5nncn5C)c4)nc3c2)C1 [Example I-2, (S)-(2-(2′-(4-Methyl-4H-1,2,4-triazol-3-yl)-[1,1′-biphenyl]-3-yl)-7-(trifluoromethyl)benzo[d]oxazol-5-yl)(3-methylpiperidin-1-yl)methanone]	–	10000 to 50000	10000 to 50000	–
Cn1cnnc1-c1ccccc1-c1cccc(-c2nc3cc(C(C)(C)O)cc(C(F)(F)F)c3o2)c1 [Example J-1, 2-(2-(2′-(4-Methyl-4H-1,2,4-triazol-3-yl)-[1,1′-biphenyl]-3-yl)-7-(trifluoromethyl)benzo[d]oxazol-5-yl)propan-2-ol]	–	10000 to 50000	10000 to 50000	–
Cn1cnnc1-c1ccccc1-c1cccc(-c2nc3cccc(C(F)(F)F)c3o2)c1 [Example K-2, 2-(2′-(4-Methyl-4H-1,2,4-triazol-3-yl)-[1,1′-biphenyl]-3-yl)-7-(trifluoromethyl)benzo[d]oxazole]	–	10000 to 50000	10000 to 50000	–
C[C@@H]1CCCN(Cc2cc(C(F)(F)F)c3oc(-c4cccc(-c5ccccc5-c5nncn5C)c4)nc3c2)C1 [Example L-4, (R)-2-(2′-(4-Methyl-4H-1,2,4-triazol-3-yl)-[1,1′-biphenyl]-3-yl)-5-((3-methylpiperidin-1-yl)methyl)-7-(trifluoromethyl)benzo[d]oxazole]	–	1000 to 10000	10000 to 50000	–
Cn1cnnc1-c1ccccc1-c1cccc(-c2nc3cc(CN(C(=O)OC(C)(C)C)[C@@H]4CCC[C@H]4O)cc(C(F)(F)F)c3o2)c1 [Example M-5, tert-Butyl ((1R,2R)-2-hydroxycyclopentyl)((2-(2′-(4-methyl-4H-1,2,4-triazol-3-yl)-[1,1′-biphenyl]-3-yl)-7-(trifluoromethyl)benzo[d]oxazol-5-yl)methyl)carbamate]	–	200 to 1000	10000 to 50000	–
Cn1cnnc1-c1cc(F)ccc1-c1cccc(-c2nc3cccc(C(F)(F)F)c3o2)c1 [Example S-1, 2-(4′-Fluoro-2′-(4-methyl-4H-1,2,4-triazol-3-yl)-[1,1′-biphenyl]-3-yl)-7-(trifluoromethyl)benzo[d]oxazole]	–	200 to 1000	1000 to 10000	–
COC(=O)c1cc(C(F)(F)F)c2oc(-c3cccc(-c4ccc(F)cc4-c4nncn4C)c3)nc2c1 [Example X-1, Methyl 2-(4′-fluoro-2′-(4-methyl-4H-1,2,4-triazol-3-yl)-[1,1′-biphenyl]-3-yl)-7-(trifluoromethyl)benzo[d]oxazole-5-carboxylate]	–	200 to 1000	1000 to 10000	–
Cn1cnnc1-c1cc(F)ccc1-c1cccc(-c2nc3cc(NCCC4CCC4)cc(C(F)(F)F)c3o2)c1 [HU-1, N-(2-Cyclobutylethyl)-2-(4′-fluoro-2′-(4-methyl-4H-1,2,4-triazol-3-yl)-[1,1′-biphenyl]-3-yl)-7-(trifluoromethyl)benzo[d]oxazol-5-amine]	10000 to 50000	1000 to 10000	–	–
